Assay results reported in patent US7232912B2, “Indazole compounds, pharmaceutical compositions, and methods for mediating or inhibiting cell proliferation” (Agouron Pharmaceuticals, Inc., priority 2000, dated 2007).

Columns and labels:
Type in all cases: biochemical
[1] = molecular target: T1, FGFR1 tyrosine kinase (Homo sapiens, UniProt P11362, C488A/C584S/L457V); experiment: Inhibition of phosphorylated FGF receptor tyrosine kinase activity; conditions: for inhibition at 1 µM: read-out: FGF % Inhib. at 1 μM
T1 construct: the cytosolic domain of FGFR1 tyrosine kinase (amino acids 456–766); made in house; host or cells: Sf9 insect cells (baculovirus)
T1 sequence (P11362 456-766 L457V/C488A/C584S): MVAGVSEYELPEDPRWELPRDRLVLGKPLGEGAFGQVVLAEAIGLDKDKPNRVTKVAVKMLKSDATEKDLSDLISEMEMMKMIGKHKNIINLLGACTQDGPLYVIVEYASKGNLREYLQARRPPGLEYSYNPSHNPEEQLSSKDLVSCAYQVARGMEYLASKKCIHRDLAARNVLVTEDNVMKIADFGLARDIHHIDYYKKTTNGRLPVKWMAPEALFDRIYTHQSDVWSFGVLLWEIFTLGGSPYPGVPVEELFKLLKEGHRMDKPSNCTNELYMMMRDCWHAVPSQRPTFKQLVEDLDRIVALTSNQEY
Procedure, shortened: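 Phosphorylated Sf9-expressed kinases, FGFR1 (aa 456–766) at 100 nM and LCK (aa 223–509) at 50 nM, with 100 μM ATP and poly(Glu,Tyr) 4:1 at 5.1 (FGFR) or 25 mM (LCK), pH 7.5, 37° C. Pyruvate kinase/LDH-coupled NADH loss read at 340 nm under initial-rate conditions; % inhibition versus 2% DMSO control.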

[2] = molecular target: T2, CDK2/cyclin A (Homo sapiens, UniProt P24941); experiment: Inhibition of CDK2/Cyclin A Retinoblastoma Kinase Activity; conditions: apparent Ki
T2 construct: made in house; host or cells: CDK2: insect cells (baculovirus); cyclin A: E. coli
Procedure, shortened: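 Baculovirus-expressed CDK2 complexed with proteolyzed cyclin A, at 150 nM or 5 nM, phosphorylating an Rb fragment with 25 µM [32/33P]ATP in HEPES pH 7.4, 2% DMSO. Reactions run 20 min at 30°C, EDTA-stopped, filter-captured; apparent Ki from competitive or tight-binding competitive fits.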

[3] = molecular target: CDK4/cyclin D3 (Homo sapiens, UniProt P11802); experiment: Inhibition of CDK4/Cyclin D Retinoblastoma Kinase Activity; conditions: apparent Ki
Sequence of CDK4/cyclin D3 (P11802 2-303 limits assumed): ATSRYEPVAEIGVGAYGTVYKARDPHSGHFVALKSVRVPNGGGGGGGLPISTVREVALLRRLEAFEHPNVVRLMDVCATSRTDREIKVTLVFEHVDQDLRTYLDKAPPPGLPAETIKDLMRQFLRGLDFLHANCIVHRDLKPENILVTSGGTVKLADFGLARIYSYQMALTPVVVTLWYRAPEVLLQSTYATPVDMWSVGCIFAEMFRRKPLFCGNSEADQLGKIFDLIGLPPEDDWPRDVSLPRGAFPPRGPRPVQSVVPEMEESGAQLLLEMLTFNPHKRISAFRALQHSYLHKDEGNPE
Sequence of CDK4/cyclin D3 (P30281 1-264 limits assumed, further chain): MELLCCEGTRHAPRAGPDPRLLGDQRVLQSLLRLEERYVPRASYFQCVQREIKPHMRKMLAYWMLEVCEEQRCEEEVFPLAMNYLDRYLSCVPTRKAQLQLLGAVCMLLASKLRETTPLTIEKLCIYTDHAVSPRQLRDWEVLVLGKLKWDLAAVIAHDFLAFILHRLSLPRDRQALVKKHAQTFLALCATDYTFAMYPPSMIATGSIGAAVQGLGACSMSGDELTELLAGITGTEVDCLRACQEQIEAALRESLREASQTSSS
Procedure, shortened: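 Human CDK4/cyclin D3 (full-length or cyclin D3 1–264), insect-cell expressed, at 5 or 50 nM with His-tagged Rb 386–928 substrate, 25 μM ATP plus [32P/33P]ATP, pH 7.4, 2% DMSO, 30 °C for 20 min; tight binders used 5 nM enzyme for 60 min. Filter-captured phospho-Rb quantified by phosphorimager. Apparent Ki from competitive or tight-binding inhibition fits.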

inhibition at 1 µM [1] [%]	Ki [2] [nM]	Ki [3] [nM]	Ki [1] [nM]	SMILES
55.5	0.21	0.37		CN(C)Cc1cccc2[nH]c(-c3n[nH]c4ccc(-c5cncc6ccccc56)cc34)nc12 [Example 31, [2-(5-Isoquinolin-4-yl-1H-indazol-3-yl)-1H-benzoimidazol-4-ylmethyl]-dimethyl-amine]
53	160	200		Fc1ccccc1-c1ccc2[nH]nc(-c3nc4ccccc4[nH]3)c2c1 [Example 6, 3-(1H-Benzoimidazol-2-yl)-5-(2-fluorophenyl)-1H-Indazole]
32	0.29	2.6		Cc1c(-c2ccncc2)cncc1-c1ccc2[nH]nc(-c3nc4ccccc4[nH]3)c2c1 [Example 53, 5-[3-(1H-Benzoimidazol-2-yl)-1H-indazol-5-yl]-4-methyl-[3,4′]bipyridinyl]
81.5	0.27	26		c1ccc2[nH]c(-c3n[nH]c4ccc(-c5cncc6c5CCCN6)cc34)nc2c1 [Example 54]
50.5	28	30		CCc1cncc(-c2ccc3[nH]nc(/C=C/c4ccccc4)c3c2)c1Cl [Example 46, 5-(4-Chloro-5-ethyl-pyridin-3-yl)-3-(E)-styryl-1H-indazole]
47.6	0.58	1.6		Cc1c(/C=C/CO)cncc1-c1ccc2[nH]nc(-c3nc4ccccc4[nH]3)c2c1 [Example 59, (E)-3-{5-[3-(1H-Benzoimidazol-2-yl)-1H-indazol-5-yl]-4-methyl-pyridin-3-yl}-prop-2-en-1-ol]
20.3	1	6.7	3000	Cc1c(-c2cccnc2)cncc1-c1ccc2[nH]nc(-c3nc4ccccc4[nH]3)c2c1 [Example 58]
25.6	4.1	15		Cc1c(-c2cccc(CO)c2)cncc1-c1ccc2[nH]nc(-c3nc4ccccc4[nH]3)c2c1 [Example 69, (3-{5-[3-(1H-Benzoimidazol-2-yl)-1H-indazol-5-yl]-4-methyl-pyridin-3-yl}-phenyl)-methanol]
48.6	7.6	12		Cc1c(CO)cncc1-c1ccc2[nH]nc(-c3nc4ccccc4[nH]3)c2c1 [Example 72, {5-[3-(1H-Benzoimidazol-2-yl)-1H-indazol-5-yl]-4-methyl-pyridin-3-yl}-methanol]
28.8	1	0.85		Cc1c(-c2ccncc2)cncc1-c1ccc2[nH]nc(-c3nc4ccc(NS(C)(=O)=O)cc4[nH]3)c2c1 [Example 71, N-{2-[5-(4-methyl-[3,4′]bipyridinyl-5-yl)-1H-indazol-3-yl)-3H-benzoimidazol-5-yl]-methanesulfonamide]
	0.47	7.7	2200	OCc1cccc2[nH]c(-c3n[nH]c4ccc(-c5cncc6ccccc56)cc34)nc12 [Example 29, [2-(5-Isoquinolin-4-yl-1H-indazol-3-yl)-1H-benzoimidazol-4-yl]-methanol]
83.6	1.1	41		O=C(Nc1cccc2c(-c3ccc4[nH]nc(-c5nc6ccccc6[nH]5)c4c3)cncc12)c1cccnc1 [Example 55, N-{4-[3-(1H-Benzoimidazol-2-yl)-1H-indazol-5-yl]-isoquinolin-8-yl}-nicotinamide]
61	33	74		Cc1c(O)cccc1-c1ccc2[nH]nc(-c3nc4ccccc4[nH]3)c2c1 [10′, 3-[3-(1H-Benzoimidazol-2-yl)-1H-indazol-5-yl]-2-methyl-phenol]
87	62	18		Cc1c(O)cccc1-c1ccc2[nH]nc(/C=C/c3ccccc3)c2c1 [15′, 2-Methyl-3-[3-((E)-styryl)-1H-indazol-5-yl]-phenol]
42.9	2.7	6.9		Cc1c(CN(C)C)cncc1-c1ccc2[nH]nc(-c3nc4ccccc4[nH]3)c2c1 [Example 73, {5-[3-(1H-Benzoimidazol-2-yl)-1H-indazol-5-yl]-4-methyl-pyridin-3-ylmethyl}-dimethyl-amine]
63	0.23	1.8		CS(=O)(=O)Nc1ccc2nc(-c3n[nH]c4ccc(-c5cncc6ccccc56)cc34)[nH]c2c1 [Example 70, N-[2-(5-Isoquinolin-4-yl-1H-indazol-3-yl)-3H-benzoimidazol-5-yl]-methanesulfonamide]
82.6	1.6	0.52		CCNCc1cncc(-c2ccc3[nH]nc(-c4nc5ccccc5[nH]4)c3c2)c1C [Example 74, {5-[3-(1H-Benzoimidazol-2-yl)-1H-indazol-5-yl]-4-methyl-pyridin-3-ylmethyl}-ethyl-amine]
40.8	0.6	1.6		Cc1c(CCCO)cncc1-c1ccc2[nH]nc(-c3nc4ccccc4[nH]3)c2c1 [Example 60, (E)-3-{5-[3-(1H-Benzoimidazol-2-yl)-1H-indazol-5-yl]-4-methyl-pyridin-3-yl}-propan-1-ol]
55.8	1	2.3		CCN(CC)Cc1cccc2[nH]c(-c3n[nH]c4ccc(-c5cncc6ccccc56)cc34)nc12 [Example 36, Diethyl-[2-(5-isoquinolin-4-yl-1H-indazol-3-yl)-1H-benzoimidazol-4-ylmethyl]-amine]
60.7	1.2	17	480	CCc1c(-c2ccncc2)cncc1-c1ccc2[nH]nc(-c3nc4ccccc4[nH]3)c2c1 [Example 61, 5-[3-(1H-Benzoimidazol-2yl)-1H-indazol-5-yl]-4ethyl-[3,4′]bipyridinyl]
	15	35	1000	C(=C\c1n[nH]c2ccc(-c3cncc4ccccc34)cc12)/c1ccccc1 [Example 16]
55	2.6	3.5		Clc1ccncc1-c1ccc2[nH]nc(-c3nc4ccccc4[nH]3)c2c1 [Example 52, 3-(1H-Benzoimidazol-2-yl)-5-(4-chloro-pyridin-3-yl)-1H-indazole]

SMILES	inhibition at 1 µM [1] [%]	Ki [2] [nM]	Ki [3] [nM]	Ki [1] [nM]
c1ccc2[nH]c(-c3n[nH]c4ccc(-c5cccc6[nH]ccc56)cc34)nc2c1 [Example 48, 3-(1H-Benzoimidazol-2-yl)-5-(1H-indol-4-yl)-1H-indazole]	68.5	55	21	
CCNCc1cccc2[nH]c(-c3n[nH]c4ccc(-c5cncc6ccccc56)cc34)nc12 [Example 37, Ethyl-[2-(5-isoquinolin-4-yl-1H-indazol-3-yl)-1H-benzoimidazol-4-ylmethyl]-amine]	34.4	0.22	0.76	
CC(C)NCc1cccc2[nH]c(-c3n[nH]c4ccc(-c5cncc6ccccc56)cc34)nc12 [Example 38, Isopropyl-[2-(5-isoquinolin-4-yl-1H-indazol-3-yl)-1H-benzoimidazol-4-ylmethyl]-amine]	42.4	1	0.798	
